Laboratory results as given in publication PMC9312958, “A Novel and Selective Dopamine Transporter Inhibitor, (S)-MK-26, Promotes Hippocampal Synaptic Plasticity and Restores Effort-Related Motivational Dysfunctions” (Biomolecules, 2022).

What was measured:
DAT = tested on: DAT; design: method as in PMID 16885432; conditions: read-out: IC50, DAT-inhibiting power; cited from earlier work
hDAT = molecular target: T1, hDAT (Homo sapiens, UniProt Q01959); test: Uptake inhibition assay in HEK293 cells expressing hDAT; type: cell-based
T1 construct: expressed in transfected cells
T1 sequence (Q01959 whole entry): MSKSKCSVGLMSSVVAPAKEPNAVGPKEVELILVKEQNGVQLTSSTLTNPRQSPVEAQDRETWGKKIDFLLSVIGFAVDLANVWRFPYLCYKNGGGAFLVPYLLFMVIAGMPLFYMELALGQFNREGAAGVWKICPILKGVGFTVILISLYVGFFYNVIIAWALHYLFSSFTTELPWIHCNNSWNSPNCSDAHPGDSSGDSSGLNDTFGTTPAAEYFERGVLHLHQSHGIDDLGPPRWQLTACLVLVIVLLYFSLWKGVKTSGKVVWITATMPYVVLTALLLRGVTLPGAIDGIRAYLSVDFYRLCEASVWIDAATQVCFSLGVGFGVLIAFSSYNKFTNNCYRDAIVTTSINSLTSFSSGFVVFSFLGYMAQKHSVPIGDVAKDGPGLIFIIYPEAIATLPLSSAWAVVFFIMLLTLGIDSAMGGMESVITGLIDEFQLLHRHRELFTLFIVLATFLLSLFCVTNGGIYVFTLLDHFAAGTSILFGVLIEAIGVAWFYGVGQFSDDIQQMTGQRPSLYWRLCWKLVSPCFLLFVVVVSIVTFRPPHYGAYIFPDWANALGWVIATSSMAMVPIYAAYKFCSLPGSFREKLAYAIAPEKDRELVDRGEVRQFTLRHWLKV
Experimental: (§1) Human embryonic kidney 293 cells (HEK293 cells) were cultivated in Dulbecco’s Modified Eagle Medium (DMEM), containing 10% heat-inactivated fetal calf serum (FCS; 100 mL/L), streptomycin (100 μg/100 mL) and penicillin ([…]). Geneticin (50 μg/mL) was added to select cells stably expressing the human isoforms of dopamine, norepinephrine and serotonin transporter (hDAT, hNET, and hSERT, respectively) as described earlier. Cell lines were maintained in culture in humidified atmosphere (37 °C, 5% CO2), and passaged when reached 80–90% confluency. Cells expressing the desired transporter were seeded the day before the experiment (40,000 cells per well) or two days before the experiments (20,000 cells per well) onto poly-D-lysine (PDL)-coated 96-well plates.
(§2) Uptake inhibition experiments were carried out as reported previously. Ninety-six-well plates containing hDAT-, hNET- or hSERT-expressing cells were washed with Krebs-HEPES buffer (KHB; 25 mM HEPES, 120 mM NaCl, 5 mM KCl, 1.2 mM CaCl2, and 1.2 mM MgSO4 and 5 mM D-glucose, pH = 7.3). Cells were then preincubated with increasing concentrations of the compound diluted in KHB for 6 min. Following the pre-incubation of the cells with the compound, the tritiated substrate (hDAT: 0.15 μM [^3H]DA; hNET: 0.05 μM [^3H]MPP^+; hSERT: 0.1 μM [^3H]5-HT) was added to the wells. The uptake was terminated by removal of tritiated substrate and by washing the cells with ice-cold KHB after 1 min (for hDAT and hSERT) or 3 min (for hNET). Thereafter, 200 μL of Ultima Gold^TM XR scintillation cocktail (PerkinElmer, MA, USA) was added, the plates were shaken and the radioactivity accumulated into the cells determined in a Wal-lac 1450 MicroBeta TriLux Liquid Scintillation Counter & Lumi (GMI, Ramsey, MN, USA). Non- specific tritiated substrate uptake was measured in the presence of 100 μM cocaine (for hDAT and hNET) or 10 μM paroxetine (for hSERT), and subtracted from the data. Uptake in the presence of test drugs was normalized to the uptake in the presence of the vehicle.

hNET = molecular target: T2, hNET (Homo sapiens, UniProt P23975); test: Uptake inhibition assay in HEK293 cells expressing hNET; type: cell-based
T2 construct: expressed in transfected cells
T2 sequence (P23975 whole entry): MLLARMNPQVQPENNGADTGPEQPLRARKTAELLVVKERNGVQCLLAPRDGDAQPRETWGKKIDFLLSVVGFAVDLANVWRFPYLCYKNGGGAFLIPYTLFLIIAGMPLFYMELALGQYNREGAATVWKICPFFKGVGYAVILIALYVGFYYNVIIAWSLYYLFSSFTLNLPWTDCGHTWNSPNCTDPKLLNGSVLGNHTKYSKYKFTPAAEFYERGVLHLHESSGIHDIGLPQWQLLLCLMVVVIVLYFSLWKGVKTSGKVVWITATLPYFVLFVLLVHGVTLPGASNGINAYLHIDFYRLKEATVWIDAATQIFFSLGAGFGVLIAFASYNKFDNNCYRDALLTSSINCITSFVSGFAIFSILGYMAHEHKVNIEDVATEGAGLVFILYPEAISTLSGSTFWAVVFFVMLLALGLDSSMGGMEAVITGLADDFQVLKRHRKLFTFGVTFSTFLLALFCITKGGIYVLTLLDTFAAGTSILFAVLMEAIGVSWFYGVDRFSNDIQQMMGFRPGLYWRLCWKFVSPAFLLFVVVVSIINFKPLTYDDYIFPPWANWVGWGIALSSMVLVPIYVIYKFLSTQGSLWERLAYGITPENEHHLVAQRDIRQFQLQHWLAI
Experimental: as §1, §2

hSERT = molecular target: T3, hSERT (Homo sapiens, UniProt P31645); test: Uptake inhibition assay in HEK293 cells expressing hSERT; type: cell-based
T3 construct: expressed in transfected cells
T3 sequence (P31645 whole entry): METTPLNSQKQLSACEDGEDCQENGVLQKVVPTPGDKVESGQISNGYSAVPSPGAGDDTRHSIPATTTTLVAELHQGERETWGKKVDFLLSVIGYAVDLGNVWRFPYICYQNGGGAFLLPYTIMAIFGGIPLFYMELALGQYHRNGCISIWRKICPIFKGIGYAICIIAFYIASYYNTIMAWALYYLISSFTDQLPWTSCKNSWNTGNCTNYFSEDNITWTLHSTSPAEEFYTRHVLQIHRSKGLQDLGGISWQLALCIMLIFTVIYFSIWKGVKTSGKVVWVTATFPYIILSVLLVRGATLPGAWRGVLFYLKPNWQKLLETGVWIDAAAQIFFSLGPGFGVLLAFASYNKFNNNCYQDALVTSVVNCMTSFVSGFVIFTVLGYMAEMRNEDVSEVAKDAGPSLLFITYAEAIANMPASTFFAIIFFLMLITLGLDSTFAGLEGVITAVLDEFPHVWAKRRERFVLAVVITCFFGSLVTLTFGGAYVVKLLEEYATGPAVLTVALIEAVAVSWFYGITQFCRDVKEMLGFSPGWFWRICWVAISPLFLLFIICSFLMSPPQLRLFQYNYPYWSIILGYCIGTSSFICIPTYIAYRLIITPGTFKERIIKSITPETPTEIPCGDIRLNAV
Experimental: as §1
Uptake inhibition experiments were carried out as reported previously. […] Thereafter, 200 μL of Ultima Gold^TM XR scintillation cocktail (PerkinElmer, MA, USA) was added, the plates were shaken and the radioactivity accumulated into the cells determined in a Wal-lac 1450 MicroBeta TriLux Liquid Scintillation Counter & Lumi (GMI, Ramsey, MN, USA). Non- specific tritiated substrate uptake was measured in the presence of 100 μM cocaine (for hDAT and hNET) or 10 μM paroxetine (for hSERT), and subtracted from the data. […]

[1] = tested on: adult male Sprague Dawley rats; test: FR5/chow feeding choice task; type: in vivo, rat; conditions: 1.0 mg/kg TBZ plus vehicle vs vehicle plus vehicle
Experimental: Pharmacological agents: (S)-MK-26 was obtained from the Lubec Laboratory (University of Vienna, Austria) and dissolved in dimethyl sulfoxide (DMSO) (10%), Tween 80 (15%), and 0.9% saline (75%). The DMSO/Tween 80/saline mixture was administered as the vehicle control. The dose range was selected as 3.75–45.0 mg/kg based on its DAT affinity and pilot studies. It was administered 30 min before testing. TBZ (9,10-dimethoxy3-(2-methylpropyl)-1,3,4,6,7, 11b hexahydrobenzo[a]quinolizin2-one) was obtained from Tocris Bioscience (Ellisville, MO) and was dissolved in DMSO (20%) and 0.9% saline (80%) and was titrated with 1.0 N HCl until the drug was dissolved at a pH of 4.0–4.5. The DMSO/saline solution with equal amounts of HCl was administered as the vehicle control. The selected dose was 1.0mg/kg based on the previous research from our laboratory. It was administered 120 min prior to testing.
FR5/chow feeding choice task: A total of 8 adult male Sprague Dawley rats (Envigo Sprague Dawley, Indianapolis, IN, USA; weights 275–299 g upon arrival) were pair-housed in a colony maintained at 23 °C, with a 12 h light/dark cycle (lights on 07:00). Rats were food deprived to 85% of their free-feeding body weight with modest growth throughout the experiment and water was available ad libitum in their home cages. All the animal protocols were approved by the University of Connecticut Institutional Animal Care and Use Committee, and the experiments were completed according to National Institutes of Health guidelines.
Behavioral sessions were conducted in operant chambers (28 × 23 × 23 cm^3; Med Associates, Fairfax, VT, USA) with 30 min sessions 5 days/week. Rats were initially trained to lever press on magazine training for 3 days, followed by an FR1 schedule for 3 days (high-carbohydrate 45-mg pellets, Bio-Serv, Frenchtown, NJ, USA), and then moved to the FR5 schedule. After 5 weeks of training on the FR5 schedule, lab chow was introduced as the concurrently available choice food (Laboratory Diet, 5P00 Prolab RMH 3000, Purina Mills, St. Louis, MO, USA; typically 15–20 g). At the end of each session, rats were immediately removed from the chambers. The number of lever pressing was recorded and the amount of consumed chow was calculated by weighing the remaining food, including spillage. Rats were trained on the FR5/chow feeding choice task for 5 weeks, after which drug testing began.
To test the effects of (S)-MK-26 on FR5/Chow feeding choice task, trained rats were administered either with TBZ (1.0 mg/kg) or vehicle 120 min before testing, and (S)-MK-26 also with doses of 15.0, 30.0, 45.0 mg/kg or vehicle 30 min before testing, via intraperitoneal (IP) injections on drug testing days. A repeated-measures design was utilized where each rat received each drug treatment in a randomly varied order, once per week. The following five treatment combinations were given: TBZ vehicle + (S)-MK-26 vehicle; 1.0 mg/kg TBZ + (S)-MK-26 vehicle; 1.0 mg/kg TBZ + 15.0 mg/kg (S)-MK-26; 1.0 mg/kg TBZ + 30.0 mg/kg (S)-MK-26; 1.0 mg/kg TBZ + 45.0 mg/kg (S)-MK-26. Next, to see if the effects of lower doses, the following four treatment combinations were given in a repeated measure design: TBZ vehicle + (S)-MK-26 vehicle; 1.0 mg/kg TBZ + (S)-MK-26 vehicle; 1.0 mg/kg TBZ + 3.75 mg/kg (S)-MK-26; 1.0 mg/kg TBZ + 7.5 mg/kg (S)-MK-26.

SMILES: [O-][S@+](Cc1cncs1)C(c1cccc(Cl)c1)c1cccc(Cl)c1 [(R)-MK-26, (R)-5-(((bis(3-chlorophenyl)methyl)sulphinyl)methyl)thiazole]
- IC50 (hDAT): 36.3 µM
- IC50 (hNET): 2160 µM
- IC50 (hSERT): > 1000 µM

SMILES: NC(=O)C[S@@+]([O-])C(c1ccccc1)c1ccccc1 [(R)-Modafinil, reference compound]
- IC50 (hNET): 127 µM

SMILES: COc1cc2c(cc1OC)C1CC(=O)C(CC(C)C)CN1CC2 (stereo not shown) [TBZ, 9,10-dimethoxy3-(2-methylpropyl)-1,3,4,6,7, 11b hexahydrobenzo[a]quinolizin2-one, reference compound]
- effect on chow intake [1]: increasing chow intake
- effect on lever pressing [1]: decreasing lever pressing
